The results in this text go back to patent US20250326753A1, “DUAL CXCR4-BTK INHIBITORS” (X4 Pharmaceuticals, Inc., priority 2022, published 2025).

Holding throughout (type): biochemical
One assay deals with T1, BMX (Homo sapiens, UniProt P51813).
T1 construct: purchased Reaction Biology Europe GmbH
T1 sequence (P51813 1-675): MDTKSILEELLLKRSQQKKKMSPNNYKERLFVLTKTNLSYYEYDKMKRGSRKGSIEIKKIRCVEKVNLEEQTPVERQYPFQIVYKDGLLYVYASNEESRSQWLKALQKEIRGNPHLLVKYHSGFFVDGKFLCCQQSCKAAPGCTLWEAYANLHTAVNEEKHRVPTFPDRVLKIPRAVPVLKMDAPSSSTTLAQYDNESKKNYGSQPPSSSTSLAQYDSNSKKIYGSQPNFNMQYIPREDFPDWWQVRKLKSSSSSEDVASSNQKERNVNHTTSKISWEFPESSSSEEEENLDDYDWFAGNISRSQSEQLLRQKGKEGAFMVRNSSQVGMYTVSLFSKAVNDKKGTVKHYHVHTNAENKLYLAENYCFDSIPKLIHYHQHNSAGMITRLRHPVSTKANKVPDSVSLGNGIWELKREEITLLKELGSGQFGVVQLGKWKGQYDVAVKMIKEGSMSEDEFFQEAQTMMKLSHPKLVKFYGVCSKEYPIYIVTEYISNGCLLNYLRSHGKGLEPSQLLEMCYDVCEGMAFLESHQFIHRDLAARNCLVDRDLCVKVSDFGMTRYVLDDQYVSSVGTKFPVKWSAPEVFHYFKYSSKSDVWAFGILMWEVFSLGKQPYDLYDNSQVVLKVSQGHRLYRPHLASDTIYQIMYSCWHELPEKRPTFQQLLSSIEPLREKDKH
Description: PanQinase kinase panel: BMX. The conditions noted are these: read-out: INHIBITORY EFFECT @ 1 uM: BMX. How it is done: (§1) Screening procedures were performed in accordance with the company's on-line protocol [accessed on-line Mar.
(§2) For each kinase, the median value of the cpm of three wells was defined as “low control” (n=3). This value reflects unspecific binding of radioactivity to the plate in the absence of a protein kinase but in the presence of the substrate. Additionally, for each kinase the median value of the cpm of three other wells was taken as the “high control,” i.e. full activity in the absence of any inhibitor (n=3). The difference between high and low control of each enzyme was taken as 100% activity.
(§3) As part of the data evaluation the low control of each kinase was subtracted from the high control value as well as from their corresponding “compound values”.

A further assay has as its target T2, TEC (Homo sapiens, UniProt P42680).
T2 construct: purchased Reaction Biology Europe GmbH
T2 sequence (P42680 1-631): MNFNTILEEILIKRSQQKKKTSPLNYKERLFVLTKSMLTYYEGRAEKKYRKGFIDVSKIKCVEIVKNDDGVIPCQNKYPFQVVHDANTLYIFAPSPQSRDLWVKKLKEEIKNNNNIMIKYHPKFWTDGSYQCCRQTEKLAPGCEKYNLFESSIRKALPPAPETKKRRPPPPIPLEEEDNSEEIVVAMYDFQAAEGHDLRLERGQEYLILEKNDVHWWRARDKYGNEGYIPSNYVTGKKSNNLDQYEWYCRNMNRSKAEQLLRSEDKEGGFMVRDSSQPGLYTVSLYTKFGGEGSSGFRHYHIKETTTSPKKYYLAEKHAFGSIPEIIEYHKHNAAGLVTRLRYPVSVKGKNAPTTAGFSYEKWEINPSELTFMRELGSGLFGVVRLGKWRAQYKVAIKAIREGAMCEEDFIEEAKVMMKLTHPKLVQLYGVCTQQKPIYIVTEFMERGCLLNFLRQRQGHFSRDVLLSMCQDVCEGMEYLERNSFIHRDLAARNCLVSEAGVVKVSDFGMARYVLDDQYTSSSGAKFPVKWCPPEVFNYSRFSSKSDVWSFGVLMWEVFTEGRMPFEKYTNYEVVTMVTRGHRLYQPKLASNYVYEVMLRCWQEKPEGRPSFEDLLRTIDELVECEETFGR
Description: PanQinase kinase panel: TEC. The conditions noted are these: for inhibition at 1 µM: read-out: INHIBITORY EFFECT @ 1 uM: TEC. How it is done: as §1, §2, §3

For another assay, the target named is T3, ERBB2 (Homo sapiens, UniProt P04626).
T3 construct: purchased Reaction Biology Europe GmbH
T3 sequence (P04626 23-1255): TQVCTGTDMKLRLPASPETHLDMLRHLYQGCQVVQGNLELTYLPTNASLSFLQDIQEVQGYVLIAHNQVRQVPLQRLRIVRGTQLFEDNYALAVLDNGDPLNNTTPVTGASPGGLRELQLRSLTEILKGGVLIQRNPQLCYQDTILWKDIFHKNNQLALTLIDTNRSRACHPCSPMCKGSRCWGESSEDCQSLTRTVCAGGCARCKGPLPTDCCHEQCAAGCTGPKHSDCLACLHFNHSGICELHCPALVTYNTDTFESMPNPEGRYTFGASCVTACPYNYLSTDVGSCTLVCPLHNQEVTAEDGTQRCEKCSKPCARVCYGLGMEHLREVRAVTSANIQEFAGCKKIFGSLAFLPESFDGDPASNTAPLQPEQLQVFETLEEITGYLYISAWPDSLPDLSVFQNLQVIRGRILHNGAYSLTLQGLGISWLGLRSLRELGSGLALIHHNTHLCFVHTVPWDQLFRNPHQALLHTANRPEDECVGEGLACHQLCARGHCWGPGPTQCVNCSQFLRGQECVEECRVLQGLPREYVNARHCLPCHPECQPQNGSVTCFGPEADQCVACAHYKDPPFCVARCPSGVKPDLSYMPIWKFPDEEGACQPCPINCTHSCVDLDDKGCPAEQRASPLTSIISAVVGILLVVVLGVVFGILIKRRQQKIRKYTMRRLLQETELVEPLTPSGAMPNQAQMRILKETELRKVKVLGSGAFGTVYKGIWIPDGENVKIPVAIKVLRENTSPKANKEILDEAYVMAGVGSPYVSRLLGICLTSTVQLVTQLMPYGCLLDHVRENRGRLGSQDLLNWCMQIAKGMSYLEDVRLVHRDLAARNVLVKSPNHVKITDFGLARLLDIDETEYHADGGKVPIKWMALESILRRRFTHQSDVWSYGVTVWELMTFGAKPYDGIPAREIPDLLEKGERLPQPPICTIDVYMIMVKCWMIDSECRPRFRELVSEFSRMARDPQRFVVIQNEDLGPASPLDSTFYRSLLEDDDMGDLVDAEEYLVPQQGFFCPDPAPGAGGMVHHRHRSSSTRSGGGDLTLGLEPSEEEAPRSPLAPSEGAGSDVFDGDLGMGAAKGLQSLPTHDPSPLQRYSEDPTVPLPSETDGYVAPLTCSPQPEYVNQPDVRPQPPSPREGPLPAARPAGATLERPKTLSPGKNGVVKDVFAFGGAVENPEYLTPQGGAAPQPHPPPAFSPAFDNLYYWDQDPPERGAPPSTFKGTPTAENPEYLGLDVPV
As to the kind of experiment: PanQinase kinase panel: ERBB2. The conditions noted are these: read-out: INHIBITORY EFFECT @ 1 uM: ERBB2. How it is done:
as §1, §2
(§4) As part of the data evaluation the low control of each kinase was subtracted from the high control value as well as from their corresponding “compound values”. The residual activity (in %) for each compound well was calculated by using the following formula: Res. Activity (%)=100×[(signal of compound−low control)/(high control−low control)].

For another assay, the target named is T4, RET (Homo sapiens, UniProt P07949).
T4 construct: purchased Reaction Biology Europe GmbH
Description: PanQinase kinase panel: RET. The conditions noted are these: read-out: INHIBITORY EFFECT @ 1 uM: RET. How it is done: as §1, §2, §4

Another assay has as its target T5, CK1epsilon (Homo sapiens, UniProt P49674).
T5 construct: purchased Reaction Biology Europe GmbH
Description: PanQinase kinase panel: CK1epsilon. The conditions noted are these: read-out: INHIBITORY EFFECT @ 1 uM: CK1epsilon. How it is done: as §1, §2, §4

A further assay addresses T6, PAK1 (Homo sapiens, UniProt Q13153).
T6 construct: purchased Reaction Biology Europe GmbH
As to the kind of experiment: PanQinase kinase panel: PAK1. The conditions noted are these: read-out: INHIBITORY EFFECT @ 1 uM: PAK1. How it is done:
as §1, §2, §4

A further assay addresses T7, PAK2 (Homo sapiens, UniProt Q13177).
T7 construct: purchased Reaction Biology Europe GmbH
As to the kind of experiment: PanQinase kinase panel: PAK2. The conditions noted are these: read-out: INHIBITORY EFFECT @ 1 uM: PAK2. How it is done:
as §1, §2, §4

A further assay has as its target T8, PDGFRalpha (Homo sapiens, UniProt P16234).
T8 construct: purchased Reaction Biology Europe GmbH
As to the kind of experiment: PanQinase kinase panel: PDGFRalpha. The conditions noted are these: read-out: INHIBITORY EFFECT @ 1 uM: PDGFRalpha. How it is done: as §1, §2, §4

In another assay the target is T9, VEGFR2 (Homo sapiens, UniProt P35968).
T9 construct: purchased Reaction Biology Europe GmbH
T9 sequence (P35968 20-1356): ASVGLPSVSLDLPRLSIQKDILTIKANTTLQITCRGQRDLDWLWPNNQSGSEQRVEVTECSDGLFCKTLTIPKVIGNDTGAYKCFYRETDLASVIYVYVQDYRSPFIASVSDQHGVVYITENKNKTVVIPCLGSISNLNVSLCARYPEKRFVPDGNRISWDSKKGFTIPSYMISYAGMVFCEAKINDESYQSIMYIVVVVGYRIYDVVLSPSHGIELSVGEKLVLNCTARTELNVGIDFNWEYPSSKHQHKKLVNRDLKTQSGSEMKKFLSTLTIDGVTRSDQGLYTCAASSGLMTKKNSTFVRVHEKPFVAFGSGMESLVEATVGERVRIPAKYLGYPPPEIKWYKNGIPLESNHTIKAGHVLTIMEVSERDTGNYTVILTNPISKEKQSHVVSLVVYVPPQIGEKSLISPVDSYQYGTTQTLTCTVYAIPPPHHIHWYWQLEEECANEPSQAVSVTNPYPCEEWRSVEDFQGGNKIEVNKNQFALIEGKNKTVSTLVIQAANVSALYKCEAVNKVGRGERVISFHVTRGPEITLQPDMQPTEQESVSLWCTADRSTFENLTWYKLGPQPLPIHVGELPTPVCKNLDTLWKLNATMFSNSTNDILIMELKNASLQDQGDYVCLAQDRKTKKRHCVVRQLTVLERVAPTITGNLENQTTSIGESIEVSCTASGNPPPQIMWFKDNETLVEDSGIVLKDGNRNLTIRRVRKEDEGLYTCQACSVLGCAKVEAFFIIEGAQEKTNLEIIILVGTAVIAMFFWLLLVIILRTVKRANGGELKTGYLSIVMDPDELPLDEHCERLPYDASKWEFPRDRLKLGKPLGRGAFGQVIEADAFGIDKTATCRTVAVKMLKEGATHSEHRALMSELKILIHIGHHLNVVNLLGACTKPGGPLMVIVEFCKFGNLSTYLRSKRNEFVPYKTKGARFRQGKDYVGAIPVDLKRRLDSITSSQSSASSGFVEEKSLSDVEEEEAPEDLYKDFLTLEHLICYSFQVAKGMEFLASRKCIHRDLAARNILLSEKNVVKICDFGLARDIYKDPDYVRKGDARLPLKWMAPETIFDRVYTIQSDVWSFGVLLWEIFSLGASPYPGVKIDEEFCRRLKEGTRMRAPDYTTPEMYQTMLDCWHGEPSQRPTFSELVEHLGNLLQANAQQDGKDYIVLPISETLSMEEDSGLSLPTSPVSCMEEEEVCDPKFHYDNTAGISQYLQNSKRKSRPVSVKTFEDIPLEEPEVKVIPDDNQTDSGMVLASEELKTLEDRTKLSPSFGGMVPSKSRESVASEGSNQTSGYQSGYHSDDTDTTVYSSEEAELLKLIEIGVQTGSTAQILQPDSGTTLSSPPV
As to the kind of experiment: PanQinase kinase panel: VEGFR2. The conditions noted are these: read-out: INHIBITORY EFFECT @ 1 uM: VEGFR2. How it is done:
as §1, §2, §4

The target in another assay is T10, CLK1 (Homo sapiens, UniProt P49759).
T10 construct: purchased Reaction Biology Europe GmbH
T10 sequence (P49759 whole entry): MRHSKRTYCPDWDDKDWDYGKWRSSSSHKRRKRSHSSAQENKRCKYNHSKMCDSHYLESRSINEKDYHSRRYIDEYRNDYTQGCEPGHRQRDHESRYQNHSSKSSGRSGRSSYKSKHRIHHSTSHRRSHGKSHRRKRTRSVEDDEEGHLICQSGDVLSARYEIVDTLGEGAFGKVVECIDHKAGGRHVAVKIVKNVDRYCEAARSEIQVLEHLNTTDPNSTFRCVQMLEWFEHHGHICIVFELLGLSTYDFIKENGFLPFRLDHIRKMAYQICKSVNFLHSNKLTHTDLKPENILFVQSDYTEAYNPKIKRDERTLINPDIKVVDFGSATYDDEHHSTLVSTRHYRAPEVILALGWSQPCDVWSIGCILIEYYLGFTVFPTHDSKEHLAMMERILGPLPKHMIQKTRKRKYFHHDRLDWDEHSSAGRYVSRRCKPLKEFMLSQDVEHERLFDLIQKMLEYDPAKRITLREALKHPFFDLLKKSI
Description: PanQinase kinase panel: CLK1. How it is done:
as §1, §2, §4

[1] abbreviates: read-out: INHIBITORY EFFECT @ 1 uM: CLK1.

Like-named read-outs stand apart in the source and are kept apart here.

T6 sequence (Q13153 whole entry): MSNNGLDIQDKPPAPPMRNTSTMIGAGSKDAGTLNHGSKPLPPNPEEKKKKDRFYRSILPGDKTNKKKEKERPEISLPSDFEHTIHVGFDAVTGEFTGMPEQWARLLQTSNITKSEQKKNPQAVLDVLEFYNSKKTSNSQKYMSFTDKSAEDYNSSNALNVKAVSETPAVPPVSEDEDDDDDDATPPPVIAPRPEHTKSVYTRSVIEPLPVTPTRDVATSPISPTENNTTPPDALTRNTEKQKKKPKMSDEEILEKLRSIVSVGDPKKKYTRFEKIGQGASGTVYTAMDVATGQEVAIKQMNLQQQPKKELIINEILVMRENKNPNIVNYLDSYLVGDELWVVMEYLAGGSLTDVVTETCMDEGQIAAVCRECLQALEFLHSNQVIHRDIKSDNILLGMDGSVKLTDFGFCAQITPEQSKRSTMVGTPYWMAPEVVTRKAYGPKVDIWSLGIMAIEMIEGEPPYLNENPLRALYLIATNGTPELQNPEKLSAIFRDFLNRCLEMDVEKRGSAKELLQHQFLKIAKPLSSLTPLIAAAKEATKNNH
T7 sequence (Q13177 whole entry): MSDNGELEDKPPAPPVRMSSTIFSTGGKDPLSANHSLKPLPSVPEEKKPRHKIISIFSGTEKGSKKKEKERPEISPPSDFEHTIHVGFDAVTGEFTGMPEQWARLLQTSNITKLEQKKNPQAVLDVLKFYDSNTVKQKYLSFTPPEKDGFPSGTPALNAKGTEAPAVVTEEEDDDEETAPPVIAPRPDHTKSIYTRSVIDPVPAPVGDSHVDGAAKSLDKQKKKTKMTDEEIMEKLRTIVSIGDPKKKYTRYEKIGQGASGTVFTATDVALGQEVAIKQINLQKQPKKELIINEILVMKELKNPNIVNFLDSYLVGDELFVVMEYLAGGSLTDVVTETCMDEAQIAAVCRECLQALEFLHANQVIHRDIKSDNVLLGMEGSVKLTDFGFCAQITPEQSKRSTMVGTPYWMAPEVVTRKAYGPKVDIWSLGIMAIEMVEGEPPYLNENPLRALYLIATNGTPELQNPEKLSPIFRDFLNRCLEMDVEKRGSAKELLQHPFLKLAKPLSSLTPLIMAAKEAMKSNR
T5 sequence (P49674 whole entry): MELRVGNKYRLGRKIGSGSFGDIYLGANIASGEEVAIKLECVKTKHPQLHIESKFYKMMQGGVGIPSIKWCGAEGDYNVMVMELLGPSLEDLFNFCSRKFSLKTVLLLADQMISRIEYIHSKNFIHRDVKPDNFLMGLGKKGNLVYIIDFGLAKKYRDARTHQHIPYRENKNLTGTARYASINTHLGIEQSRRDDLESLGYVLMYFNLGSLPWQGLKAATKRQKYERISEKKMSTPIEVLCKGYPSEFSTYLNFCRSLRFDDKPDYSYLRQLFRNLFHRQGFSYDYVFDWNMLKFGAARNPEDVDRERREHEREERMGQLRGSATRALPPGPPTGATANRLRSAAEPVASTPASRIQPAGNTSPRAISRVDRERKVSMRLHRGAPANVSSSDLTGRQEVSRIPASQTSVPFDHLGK

In the case of `O=C(c1ccc(Oc2ccccc2)cc1Cl)c1c[nH]c2ncnc(N[C@@H]3CC[C@@H](CO)OC3)c12` [ARQ-531, (2-chloro-4-phenoxyphenyl) (4-(((3R,6S)-6-(hydroxymethyl)tetrahydro-2H-pyran-3-yl)amino)-7H-pyrrolo[2,3-d]pyrimidin-5-yl) methanone], the inhibition at 1 µM at BMX is 90 to 100%; on TEC, 90 to 100%; at ERBB2 it was 70 to 89%; on RET it was 90 to 100%; on CK1epsilon, 50 to 69%; on PAK1, 50 to 69%. Further, the inhibition at 1 µM on PAK2 and on PDGFRalpha was 70 to 89% throughout.

Take `Cc1cccnc1[C@H]1CCC[C@@H](c2ncccc2C)N1CCN1CCN(C(=O)c2ccc(-c3cc4c(-c5cccc(NC(=O)c6ccccc6)c5C)ncnc4[nH]3)cc2)CC1` [Compound I-10, N-(3-(6-(4-(4-(2-((2R,6S)-2,6-bis(3-methylpyridin-2-yl)piperidin-1-yl)ethyl)piperazine-1-carbonyl)phenyl)-7H-pyrrolo[2,3-d]pyrimidin-4-yl)-2-methylphenyl)benzamide]: the inhibition at 1 µM was 70 to 89% on BMX; 70 to 89% on TEC; < 50% at ERBB2; < 50% at RET; < 50% at VEGFR2; 50 to 89% on CLK1 (at 1 μM, read-out: inhibition of CLK1). Moreover, the inhibition at 1 µM was 50 to 69% at CLK1 (setting [1]); < 50% at CK1epsilon; < 50% on PAK1; < 50% on PAK2; < 50% at PDGFRalpha.

Consider `COc1ccc(F)cc1C(=O)NCc1ccc(-c2nn([C@@H](C)C(F)(F)F)c(N)c2C(N)=O)cc1` [LOXO-305, pirtobrutinib], for which the inhibition at 1 µM is 50 to 69% on BMX; 90 to 100% at TEC; 50 to 69% on ERBB2; 50 to 69% at RET; < 50% on VEGFR2; < 50% at CLK1 (setting [1]). In addition, the inhibition at 1 µM on CK1epsilon, on PAK1, at PAK2 and at PDGFRalpha was < 50% throughout.

In the case of `C=CC(=O)N1CCC([C@@H]2CCNc3c(C(N)=O)c(-c4ccc(Oc5ccccc5)cc4)nn32)CC1` [Zanubrutinib, (7S)-2-(4-phenoxyphenyl)-7-(1-prop-2-enoylpiperidin-4-yl)-4,5,6,7-tetrahydropyrazolo[1,5-a]pyrimidine-3-carboxamide], the “INHIBITORY EFFECT @ 1 uM: TEC” value at TEC (1 uM) was “++++ (90%-100% Inhibition at 1 uM)”. For the same compound, the inhibition at 1 µM at ERBB2, on RET, on VEGFR2, at CLK1 (setting [1]), at CK1epsilon and on PAK1 was < 50% throughout. In addition, the inhibition at 1 µM at PAK2 and at PDGFRalpha was < 50% each time.
